Reference: patent US20080096208A1, “BIOMARKERS FOR ASSESSING RESPONSE TO C-MET TREATMENT” (priority 2006, published 2008)

Columns and labels:
[1] = tested on: PC-3 prostate carcinoma cells; test: Taqman real-time PCR of marker mRNA levels in HGF-stimulated PC-3 cells; assay type: cell-based
Text: In order to identify biomarkers for the HGF response and potential inhibition of this response by small molecule HGF receptor (c-met) inhibitors, a micro array analysis of PC-3 cells stimulated by HGF over a time course of 1 hr to 2 days was used. TAQMAN was employed to examine mRNA levels of VEGF, CD44, Fibronectin, and MMP-1, each of which has been shown by others to be induced by HGF. Briefly, RNA is isolated by lysis of cultured cells or homogenization of tumor tissue in a guanidine solution, Trireagent from Molecular Research Center, Inc. The RNA is purified by a Qiagen column methodology under conditions recommended by the manufacturer and DNAse treated. Specific levels of mRNAs for the indicated genes are determined by Real-Time PCR, Taqman analysis using probes and primers specific for the genes examined and purchased from Applied Biosystems and the SDS2.1 quantitation software. Quantitation is performed by comparison of the cycle number where the sample crosses a threshold value vs a standard curve made of a pool of the RNA samples. Normalization is performed by comparing the amount of specific mRNA to that of 18S RNA or GAPDH mRNA. […] This response was then evaluated upon administration of the c-met inhibitor, 3DP-669366. […] The kinetics of the induction and the amplitude of the mRNA levels differ between the cell lines examined. The micro-array analysis identified LDL Receptor 1 (LDL-R1) as another protein that is induced by HGF and whose level of expression is diminished by treatment of cells with a HGF receptor inhibitor. This analysis was then evaluated upon administration of the acylhydrazone series of c-met inhibitors, JNJ-28823184 and JNJ-38429274. In in vivo tumor xenografts, the biomarkers identified by examination of cell culture responses to c-met inhibitors are also modulated in the in vivo setting. In a U87MG tumor xenograft in nude mice, a decrease in the mRNA levels of CD44, VEGF, LDLR1, and Osteopontin was observed.

[2] = tested on: PC-3 cells; test: Micro array analysis of PC-3 cells stimulated by HGF; assay type: cell-based
Text: In order to identify biomarkers for the HGF response and potential inhibition of this response by small molecule HGF receptor (c-met) inhibitors, a micro array analysis of PC-3 cells stimulated by HGF over a time course of 1 hr to 2 days was used. TAQMAN was employed to examine mRNA levels of VEGF, CD44, Fibronectin, and MMP-1, each of which has been shown by others to be induced by HGF. Briefly, RNA is isolated by lysis of cultured cells or homogenization of tumor tissue in a guanidine solution, Trireagent from Molecular Research Center, Inc. The RNA is purified by a Qiagen column methodology under conditions recommended by the manufacturer and DNAse treated. Specific levels of mRNAs for the indicated genes are determined by Real-Time PCR, Taqman analysis using probes and primers specific for the genes examined and purchased from Applied Biosystems and the SDS2.1 quantitation software. Quantitation is performed by comparison of the cycle number where the sample crosses a threshold value vs a standard curve made of a pool of the RNA samples. Normalization is performed by comparing the amount of specific mRNA to that of 18S RNA or GAPDH mRNA. […] This response was then evaluated upon administration of the c-met inhibitor, 3DP-669366. […] This analysis was then evaluated upon administration of the acylhydrazone series of c-met inhibitors, JNJ-28823184 and JNJ-38429274. […]

[3] = between 8 and 48 hours following HGF addition, p<0.01

HGF: hepatocyte growth factor (also known as scatter factor), ligand of the c-met receptor
induction of Fibronectin mRNA by HGF [1]: did not show a statistically significant induction
induction of VEGF mRNA by HGF ([1]; between 8 and 48 hours following HGF addition, p<0.001): statistically significant induction
induction of CD44 mRNA by HGF [1, 3]: statistically significant induction
induction of MMP-1 mRNA by HGF [1, 3]: statistically significant induction
induction of LDL Receptor 1 (LDL-R1) by HGF [2]: induced
